“Also recorded” adds a separate entry of the source. Bridge positions count the residues as written; N and C are the ends. Square brackets hold non-standard residues; d marks the D form. Ends that are not written are not given here. Peptide text beside a SMILES is read from it. R8 = C=CCCCCCC[C@@](C)(N)C(=O)O; S5 = C=CCCC[C@](C)(N)C(=O)O; Sar = CNCC(=O)O
Experiments:
[1] = molecular target: T1, MPO (Homo sapiens, UniProt P05164); assay: MPO activity assay (TMB oxidation); assay type: biochemical; conditions: for inhibition of MPO peroxidase activity (TMB oxidation), dose response: purified human MPO, increasing amounts of peptide
T1 construct: purchased Lee BioSolutions (Maryland Heights, Mo.)
T1 sequence (P05164 49-745): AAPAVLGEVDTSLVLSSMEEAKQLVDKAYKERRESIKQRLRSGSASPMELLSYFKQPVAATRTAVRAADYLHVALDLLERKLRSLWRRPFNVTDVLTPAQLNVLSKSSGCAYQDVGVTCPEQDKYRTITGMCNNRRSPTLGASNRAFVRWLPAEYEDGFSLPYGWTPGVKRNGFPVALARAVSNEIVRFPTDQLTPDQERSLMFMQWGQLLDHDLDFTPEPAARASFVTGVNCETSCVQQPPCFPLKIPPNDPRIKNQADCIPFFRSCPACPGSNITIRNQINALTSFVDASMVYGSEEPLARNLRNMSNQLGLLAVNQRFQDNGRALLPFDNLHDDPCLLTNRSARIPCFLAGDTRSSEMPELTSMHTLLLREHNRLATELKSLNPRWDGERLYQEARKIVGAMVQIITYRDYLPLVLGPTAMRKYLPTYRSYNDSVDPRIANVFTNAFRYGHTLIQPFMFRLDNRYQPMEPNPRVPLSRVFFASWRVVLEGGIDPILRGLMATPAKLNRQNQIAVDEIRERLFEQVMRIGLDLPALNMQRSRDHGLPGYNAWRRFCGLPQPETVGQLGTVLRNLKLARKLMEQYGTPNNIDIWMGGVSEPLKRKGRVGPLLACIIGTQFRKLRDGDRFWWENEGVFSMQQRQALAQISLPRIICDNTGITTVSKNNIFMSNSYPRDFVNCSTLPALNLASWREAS
Description: The MPO activity assay was performed as previously described. Briefly, peptides were diluted to 12 mg/ml and serially titrated in a 96 well plate at a volume of 0.02 ml. MPO was diluted to 20 μg/ml and 0.02 ml was added to the titrated peptides. TMB (3,30,5,50-tetramethylbenzidine) (0.1 ml) was added to each well for 2 minutes, followed by 0.1 ml of 2.5 N H2SO4 for another 2 minutes, and then read on a 96 well plate reader (BioTek) at 450 nm.
The inventors also assessed the ability of RLS-0127* and RLS-0133* to inhibit MPO activity as determined by inhibition of oxidation of TMB in a plate-based assay. […] Additionally, the inventors assessed the ability of RLS-0127* and RLS-0133* to bind C1q in a plate-based assay in which C1q is coated on the plate and increasing amounts of the peptides are added, followed by primary antibody to the peptides and secondary antibody conjugated to HRP. The plate was then incubated with TMB to give a […] signal that is detected at a wavelength of 450 nm in a plate reader.

[2] = molecular target: T2, PD-1/PD-L1 interaction (Homo sapiens, UniProt Q15116+Q9NZQ7); assay: PD-1/PD-L1 Blockade Bioassay (Promega); assay type: cell-based; conditions: increasing peptide concentrations
T2 construct: host or cells: PD-1 effector cells; PD-L1 aAPC/CHO-K1 cells
T2 sequence (Q15116 25-288): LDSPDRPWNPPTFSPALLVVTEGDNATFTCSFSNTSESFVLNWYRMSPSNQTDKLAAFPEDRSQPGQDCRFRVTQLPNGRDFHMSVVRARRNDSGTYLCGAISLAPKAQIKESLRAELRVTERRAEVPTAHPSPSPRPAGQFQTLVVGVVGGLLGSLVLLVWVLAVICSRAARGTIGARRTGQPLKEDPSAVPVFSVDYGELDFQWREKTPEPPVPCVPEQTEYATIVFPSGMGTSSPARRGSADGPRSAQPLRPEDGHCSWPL
T2 sequence (Q9NZQ7 19-290): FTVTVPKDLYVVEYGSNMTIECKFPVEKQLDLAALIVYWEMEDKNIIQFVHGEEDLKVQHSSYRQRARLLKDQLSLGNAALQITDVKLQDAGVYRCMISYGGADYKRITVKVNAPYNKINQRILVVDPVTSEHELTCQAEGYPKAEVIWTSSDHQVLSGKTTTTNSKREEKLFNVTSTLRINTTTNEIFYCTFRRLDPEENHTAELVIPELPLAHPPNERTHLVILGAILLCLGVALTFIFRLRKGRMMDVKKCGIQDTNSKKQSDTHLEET
Summary of the method: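 PD-1 effector cells co-cultured with PD-L1 aAPC/CHO-K1 cells, with or without increasing concentrations of peptides; anti-PD-1 antibody as positive control. Blockade of PD-1/PD-L1 restores TCR signalling, read as NFAT-driven luciferase luminescence.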

[3] = system: purified human Pan T-cells; assay: T-cell exhaustion protocol (Dynabeads re-stimulation); assay type: cell-based; conditions: peptides 2 mg/ml at each stimulation; for IL-2 signal at stimulation 2: supernatant ELISA

| Compound | MPO inhibition compared with PA-I8Sar ([1]; half-maximal values from dose-response curves) | inhibition of PD-1/PD-L1 inhibitory signaling (luminescence) [2] | IL-2 signal at stimulation 2 [3] | inhibition of MPO peroxidase activity (TMB oxidation), dose response [1] | inhibition of PD-1/PD-L1 inhibitory signaling (luminescence) ([2]; listed as RLS-0117) | Caspase 3/7 levels ([3]; eighth day) |
| --- | --- | --- | --- | --- | --- | --- |
| CC[C@H](C)[C@H](N)C(=O)N[C@]1(C)CCCCCCC=CCCC[C@@](C)(C(=O)N[C@@H](CS)C(=O)N[C@@H](CCC(N)=O)C(=O)N[C@@H](CCC(=O)O)C(=O)N[C@@H](CCCNC(=N)N)C(=O)N[C@@H](C)C(=O)N[C@@H](C)C(=O)O)NC(=O)CN(C)C(=O)[C@@H]2CCCN2C(=O)[C@H](CCC(=O)O)NC(=O)[C@H](CC(C)C)NC(=O)[C@H]([C@@H](C)CC)NC(=O)[C@H](CC(C)C)NC1=O [PA-0115, IR8LILEP(Sar)S5CQERAA] (H-I[R8]LILEP[Sar][S5]CQERAA-OH; staple 2-9) | enhanced activity | did not show PD-1/PD-L1 inhibitory activity | did not | – | – | – |
| IALILEP(Sar)dCCQERRA (IALILEP[Sar][dC]CQERRA; cysteine pairing not given here) [RLS-0127*] | – | increase in luminescence indicative of inhibition of PD-1/PD-L1 inhibitory signaling; also recorded: able to inhibit PD-1/PD-L1 mediated cell signaling | showed an IL-2 signal at stimulation 2 | dose-dependently inhibited TMB oxidation; also recorded: inhibit complement activation and MPO peroxidase activity | – | – |
| IALILEP(Sar)CCQERA (IALILEP[Sar]CCQERA; cysteine pairing not given here) [RLS-0133*] | – | increase in luminescence indicative of inhibition of PD-1/PD-L1 inhibitory signaling; also recorded: able to inhibit PD-1/PD-L1 mediated cell signaling | did not | dose-dependently inhibited TMB oxidation; also recorded: inhibit complement activation and MPO peroxidase activity | – | – |
| CC[C@H](C)[C@H](N)C(=O)N[C@@H](C)C(=O)N[C@@H](CC(C)C)C(=O)N[C@H](C(=O)N[C@@H](CC(C)C)C(=O)N[C@@H](CCC(=O)O)C(=O)N1CCC[C@H]1C(=O)N(C)CC(=O)N[C@@H](CS)C(=O)N[C@@]1(C)CCCC=CCCC[C@@](C)(C(=O)N[C@@H](C)C(=O)O)NC(=O)[C@H](CCCNC(=N)N)NC(=O)[C@H](CCC(=O)O)NC(=O)[C@H](CCC(N)=O)NC1=O)[C@@H](C)CC [PA-0117, IALILEP(Sar)CS5QERS5A] (H-IALILEP[Sar]C[S5]QER[S5]A-OH; staple 10-14) | – | – | showed an IL-2 signal at stimulation 2 | – | increase in luminescence indicative of inhibition of PD-1/PD-L1 inhibitory signaling; also recorded: able to inhibit PD-1/PD-L1 mediated cell signaling | very low to undetectable levels of Caspase 3/7 |
